Experiments:
[1] = target: T1, HDAC6-HiBiT (endogenously tagged HDAC6 in HeLa HDAC6-HiBiT LgBiT cells) (Homo sapiens, UniProt Q9UBN7); test: NanoBRET competition with tracer […]; format: cell-based
T1 sequence (Q9UBN7 1-1215): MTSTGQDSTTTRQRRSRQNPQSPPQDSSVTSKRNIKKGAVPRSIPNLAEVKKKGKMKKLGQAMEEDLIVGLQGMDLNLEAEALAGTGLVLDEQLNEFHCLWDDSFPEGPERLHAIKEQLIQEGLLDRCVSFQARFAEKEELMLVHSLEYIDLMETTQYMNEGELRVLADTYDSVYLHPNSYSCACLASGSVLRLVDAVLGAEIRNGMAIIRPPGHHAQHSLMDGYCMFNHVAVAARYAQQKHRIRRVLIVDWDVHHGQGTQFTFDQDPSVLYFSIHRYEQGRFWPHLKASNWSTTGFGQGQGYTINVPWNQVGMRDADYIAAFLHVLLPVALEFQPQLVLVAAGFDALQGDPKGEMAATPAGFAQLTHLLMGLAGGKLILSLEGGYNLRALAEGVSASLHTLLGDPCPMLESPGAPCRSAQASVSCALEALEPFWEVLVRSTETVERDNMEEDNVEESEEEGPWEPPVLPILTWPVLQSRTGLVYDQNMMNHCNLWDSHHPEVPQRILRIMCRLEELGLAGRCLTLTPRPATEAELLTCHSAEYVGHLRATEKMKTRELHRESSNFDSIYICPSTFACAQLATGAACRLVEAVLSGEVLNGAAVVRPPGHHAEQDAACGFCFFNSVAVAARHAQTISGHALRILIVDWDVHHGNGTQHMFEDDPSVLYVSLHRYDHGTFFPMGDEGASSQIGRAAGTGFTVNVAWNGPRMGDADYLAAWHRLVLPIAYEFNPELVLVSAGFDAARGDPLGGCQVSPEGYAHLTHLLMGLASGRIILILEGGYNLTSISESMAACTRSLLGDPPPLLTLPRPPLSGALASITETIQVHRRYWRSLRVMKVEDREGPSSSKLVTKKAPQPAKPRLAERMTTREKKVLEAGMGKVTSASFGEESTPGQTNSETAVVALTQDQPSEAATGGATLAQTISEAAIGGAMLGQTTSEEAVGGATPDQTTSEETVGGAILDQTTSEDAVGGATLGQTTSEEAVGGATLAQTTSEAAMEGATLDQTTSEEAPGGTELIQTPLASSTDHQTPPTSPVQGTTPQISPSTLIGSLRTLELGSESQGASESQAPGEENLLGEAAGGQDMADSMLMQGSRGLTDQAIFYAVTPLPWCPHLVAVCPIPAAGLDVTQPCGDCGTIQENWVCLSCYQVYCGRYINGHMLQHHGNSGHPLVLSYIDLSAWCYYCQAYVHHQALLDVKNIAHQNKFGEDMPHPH

[2] = target: T1, HDAC6-HiBiT (endogenously tagged HDAC6 in HeLa HDAC6-HiBiT LgBiT cells); test: NanoBRET saturation binding; format: cell-based
[3] = target: T2, HDAC6 (human recombinant) (Homo sapiens, UniProt Q9UBN7); test: fluorogenic HDAC assay (ZMAL substrate, trypsin-coupled); format: biochemical
T2 sequence (Q9UBN7 1-1215): T1 sequence (Q9UBN7 1-1215)
Description: fluorogenic HDAC assay (ZMAL substrate, trypsin-coupled) on HDAC6 (human recombinant)

[4] = target: HDAC1 (human recombinant) (Homo sapiens, UniProt Q13547); test: as above; format: biochemical
Chain of HDAC1 (human recombinant) (Q13547 whole entry): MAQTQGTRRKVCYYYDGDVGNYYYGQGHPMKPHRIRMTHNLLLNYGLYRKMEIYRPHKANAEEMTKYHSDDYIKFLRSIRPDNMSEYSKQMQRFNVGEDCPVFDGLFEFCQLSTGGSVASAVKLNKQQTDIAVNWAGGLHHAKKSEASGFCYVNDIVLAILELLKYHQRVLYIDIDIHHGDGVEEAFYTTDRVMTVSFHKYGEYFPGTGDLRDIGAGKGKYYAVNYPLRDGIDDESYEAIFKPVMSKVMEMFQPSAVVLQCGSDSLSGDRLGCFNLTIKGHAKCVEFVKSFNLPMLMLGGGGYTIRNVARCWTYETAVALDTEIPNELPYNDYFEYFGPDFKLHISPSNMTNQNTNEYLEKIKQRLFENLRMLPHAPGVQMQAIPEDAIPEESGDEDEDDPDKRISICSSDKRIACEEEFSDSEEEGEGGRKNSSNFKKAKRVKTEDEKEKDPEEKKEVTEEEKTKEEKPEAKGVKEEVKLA
Description: fluorogenic HDAC assay (ZMAL substrate, trypsin-coupled) on HDAC1 (human recombinant)

[5] = target: HDAC2 (human recombinant) (Homo sapiens, UniProt Q92769); test: as above; format: biochemical
Chain of HDAC2 (human recombinant) (Q92769 whole entry): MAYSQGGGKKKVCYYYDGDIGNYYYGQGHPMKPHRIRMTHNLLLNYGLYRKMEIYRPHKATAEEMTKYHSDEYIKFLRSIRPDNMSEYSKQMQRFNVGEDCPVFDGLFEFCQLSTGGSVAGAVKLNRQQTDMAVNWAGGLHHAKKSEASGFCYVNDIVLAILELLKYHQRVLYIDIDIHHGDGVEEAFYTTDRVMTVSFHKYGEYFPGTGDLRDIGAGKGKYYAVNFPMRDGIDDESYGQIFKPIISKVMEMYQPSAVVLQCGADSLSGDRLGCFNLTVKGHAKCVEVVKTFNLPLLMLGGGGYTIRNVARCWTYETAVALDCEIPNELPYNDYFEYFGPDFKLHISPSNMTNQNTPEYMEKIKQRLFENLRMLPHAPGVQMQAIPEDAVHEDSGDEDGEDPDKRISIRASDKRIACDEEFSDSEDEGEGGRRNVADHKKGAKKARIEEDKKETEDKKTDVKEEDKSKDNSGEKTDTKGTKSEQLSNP
Description: fluorogenic HDAC assay (ZMAL substrate, trypsin-coupled) on HDAC2 (human recombinant)

FC(F)c1nnc(-c2cnc(NCc3ccccc3)nc2)o1 [BK1]
IC50 [1]: 75 ± 30 nM

CN(C)c1ccc2c(-c3ccc(C(=O)NCCOCCOCCOCCn4cc(COc5ccc(C(=O)NCCCCCCC(=O)NO)cc5)nn4)cc3C(=O)[O-])c3ccc(N(C)C)cc3[o+]c2c1 [compound 4, tracer 4]
Kd [2]: 120 ± 40 nM
IC50 [3]: 18 ± 1 nM
IC50 [4]: 200 ± 20 nM
IC50 [5]: 340 ± 40 nM

CN(C)c1ccc2c(-c3ccc(C(=O)NCCCn4cc(COc5ccc(C(=O)NCCCCCCC(=O)NO)cc5)nn4)cc3C(=O)[O-])c3ccc(=[N+](C)C)cc-3oc2c1 [compound 5, 2-[6-(Dimethylamino)-3-(dimethyliminio)-3H-xanthen-9-yl]-5-[(3-{4-[(4-{[7-(hydroxyamino)-7-oxoheptyl]carbamoyl}phenoxy)methyl]-1H-1,2,3-triazol-1-yl}propyl)carbamoyl]benzoate]
Kd [2]: 80 ± 11 nM
IC50 [3]: 9.1 ± 0.1 nM
IC50 [4]: 130 ± 20 nM
IC50 [5]: 220 ± 10 nM
